Patent US4831043A, “Dopaminergic benzimidazol-2-ones” (Roussel Uclaf, priority 1987, dated 1989)
Counter-ions that a name gives are not always drawn. Like-named read-outs stand apart in the source and are kept apart here.

Key:
[1] = test system: mice; assay: Study of the acute toxicity (LDO, oral route); type: in vivo
Procedure: (3) Study of the acute toxicity
The lethal doses LDO of the different compounds tested were evaluated after administration by oral route in mice. The maximum dose not causing any mortality in 8 days was called LDO and the following results were obtained: […]

[2] = target: T1, dopaminergic receptors (Rattus norvegicus, UniProt P61169); assay: Affinity for the dopaminergic receptors (displacement of 3H spiroperidol, striated bodies); type: binding, rats
T1 construct: The striated bodies removed from the brains of 6 male rats; from tissue; host or cells: rat striatum (striated bodies), membrane preparation
T1 sequence (P61169 whole entry): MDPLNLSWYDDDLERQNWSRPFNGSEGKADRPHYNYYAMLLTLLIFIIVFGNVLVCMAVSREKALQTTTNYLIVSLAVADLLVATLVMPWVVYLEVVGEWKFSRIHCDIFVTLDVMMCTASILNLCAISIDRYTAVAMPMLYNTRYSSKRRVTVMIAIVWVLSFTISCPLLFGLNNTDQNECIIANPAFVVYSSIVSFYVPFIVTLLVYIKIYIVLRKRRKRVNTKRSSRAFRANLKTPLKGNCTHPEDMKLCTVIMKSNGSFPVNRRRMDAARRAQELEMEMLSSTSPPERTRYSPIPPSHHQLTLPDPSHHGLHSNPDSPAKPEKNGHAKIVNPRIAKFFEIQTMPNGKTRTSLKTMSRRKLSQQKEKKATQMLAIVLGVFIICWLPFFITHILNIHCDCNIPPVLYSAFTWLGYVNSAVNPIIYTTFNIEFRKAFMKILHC
Procedure: (4) Affinity for the dopaminergic receptors
The striated bodies removed from the brains of 6 male rats weighing an average of 150 g were homogenized to the twentieth (weight/volume) in 0.32M sucrose. After centrifuging the homogenized mixture at 1,000 g for 10 minutes at 0° C. the supernatant was centrifuged at 30,000 g for 15 minutes at +4° C. The residue was taken up in 25 ml of Tris HCl 50 mM buffer, pH 7.7, and centrifuged at 30,000 g for 15 minutes at +4° C. The new residue was taken up in 50 ml of Krebs Tris HCl buffer pH 7.3, and the suspension was pre-incubated fo 10 minutes at 37° C. It was then incubated for 20 minutes on a water-bath at +37° C. in the presence of 3H spinoperidol alone, with an excess of haloperidol and with increasing concentrations of the product under test. The incubated suspensions were filtered on Whatman GF/C and the filters were washed three times with 5 ml of Tris HCl 50 mM buffer. The radio-activity of the filters was measured by liquid scintillation.
The non-specific fixation were determined in parallel by incubation of 3H spiroperidol in the presence of an excess of haloperidol and the following results were obtained. The result was expressed directly in 50% inhibiting concentrations, (IC50 : concentration of product studied, expressed in nM, necessary to displace 50% of the specific radio-activity fixed on the receptor studied).

[3] = test system: average arterial pressure; assay: Test of revealing a direct vasodilatation activity (demedulated rats under angiotensine II perfusion); type: in vivo, Rats of Sprague-Dawley strain; details: Rattus norvegicus, intravenous cumulative doses, tested between 0.001 and 1 mg/kg, read-out: dose from which vasodilatation effect starts
Procedure: Rats of Sprague-Dawley strain with a weight of 320-350 g were anesthetized with pentobarbital (50 mg/kg by interperitoneal injection). After insertion of a carotid catheter to measure the arterial pressure and a jugular catheter for the injection of the compounds to be stidied as well as the eventual antagonists, the animals were demedulated by a steel rod which was introduced by the right orbital hole and passed down the whole length of the spinal marrow. The animals were then placed immediately under assisted respiration and some minutes after stabilization of arterial pressure, the animals received an intravenous perfusion of angiotensine II of 0.50 micrograms/kg per minute to increase their average pressure by about 100 mm of mercury. After obtaining a plateau, the test compound was injected intravenously every 2 minutes and in cumulative doses. The percentages of fall of the average arterial pressure so obtained enabled a curve of dose-response to be drawn reflecting the vasodilatation activity of the molecule studied. Previous treatment of the animals by different antagonists enabled the mechanism of action of this molecule to be distinguished. The products were tested between 0.001 and 1 mg/kg and domperidone and propanolol were used as antagonists.

[4] = test system: arterial pressure; assay: Study of the hypotensive activity on anesthetized "normotendu" rat; type: in vivo, Male Sprague-Dawley rats (CR); details: jugular vein injection
Procedure: (5) Study of the hypotensive activity on anesthetized "normotendu" rat.
Male Sprague-Dawley rats (CR) were anesthetized intraperitoneally with sodium pentobarbital (60 mg/Kg). A jugular vein was catheterized for injection of the product and a carotid artery was catheterized for registration of the arterial pressure. The product to be tested was dissolved in 10% of ethanol and then injected at a volume of 1 ml/kg. […] The following table indicates the variations of the arterial pressure after administration of the product tested expressed as a percentage of the initial control arterial pressure.

[5] = test system: nigrostriated dopaminergic bundle; assay: Rotational behaviour after unilateral lesion of the nigrostriated bundle by 6-hydroxydopamine; type: in vivo, rats
Procedure: (1) Rotational behaviour after unilateral lesion of the nigrostriated bundle by 6-hydroxydopamine.
Male rats of about 220 g weight were injured in the nigrostriated dopaminergic bundle by a modified Ungerstedt's method [Acta. physiol. Scand. 1971, 82 suppl. 367-69 93] by unilateral injection of […] of 6-hydroxydopamine hydrochloride in solution in 4 microliters of physiological solution containing 0.4 mg/ml of ascorbic acid. The products studied were administered intraperitoneally and the treated animals were placed individually in a rotameter which enabled the counting of the number of rotations made by each animal in the direction opposite to that of the injured side.

SMILES: O=c1[nH]c2cccc(C3CCCNC3)c2[nH]1 (stereo not shown) [Example 1, 1,3-dihydro-4-(3-piperidinyl)-2H-benzimidazol-2-one]
- LDO (maximum dose not causing any mortality in 8 days) [1]: greater than 400 mg/kg
- IC50 ([2]; rat striated bodies, 3H spiroperidol, 20 minutes at 37° C., pH 7.3, read-out: IC50 (displacement of 50% of the specific radio-activity fixed on the receptor)): 172 nM

SMILES: Br.O=c1[nH]c2c(O)ccc(C3CCCNC3)c2[nH]1 (stereo not shown) [Example 4, 1,3-dihydro-4-hydroxy-7-(3-piperidinyl)-2H-benzimidazol-2-one hydrobromide]
- minimal effective dose [3]: 0.03 mg/kg
- LDO (maximum dose not causing any mortality in 8 days) [1]: greater than 400 mg/kg
- IC50 [2]: 300 nM
- variation of the arterial pressure 30 min. after administration ([4]; dose 0.1 mg/kg): -17 percentage of the initial cont

SMILES: Br.CCCN1CCCC(c2ccc(O)c3[nH]c(=O)[nH]c23)C1 (stereo not shown) [Example 5, 1,3-dihydro-4-hydroxy-7-(1-propyl-3-piperidinyl)-2H-benzimidazol-2-one hydrobromide]
- variation of the arterial pressure 5 min. after administration ([4]; dose 1 mg/kg): -19 percentage of the initial cont
- variation of the arterial pressure 30 min. after administration ([4]; dose 1 mg/kg): -19 percentage of the initial cont
- variation of the arterial pressure 5 min. after administration ([4]; dose 10 mg/kg): -23 percentage of the initial cont
- variation of the arterial pressure 30 min. after administration ([4]; dose 10 mg/kg): -21 percentage of the initial cont

SMILES: CN1CCCC(c2ccc(O)c3[nH]c(=O)[nH]c23)C1 (stereo not shown) [Example 6, 1,3-dihydro-4-hydroxy-7-(1-methyl-3-piperidinyl)-2H-benzimidazol-3-one hydrobromide]
- minimal effective dose ([5]; Rattus norvegicus, ip, read-out: dose from which rotational behavior is induced): 10 mg/kg
- rotational behavior (activity) ([5]; rats, intraperitoneal, dose of 5 mg/kg): inactive
- central dopaminergic agonist activity ([5]; rats, intraperitoneal, conclusion from rotation model of very great sensitivity): weak
